How the values were obtained:
[1] = HepG2 hepatoma cell-based hepatotoxicity assay (MTS); details: human, HepG2 hepatoma cells; 25 μM, 72 h, control 1% DMSO in culture media; read-out: HepG2 cell viability compared to the control
Experimental: To investigate the safety of compounds 2RS,4RS-39c, 50a, and 56a, a HepG2 hepatoma cell-based hepatotoxicity assay was used. Compounds were tested at six concentrations (0.1–100 μM).
Hepatotoxicity and cytotoxicity were estimated according to previously described protocols[62] using the hepatoma HepG2 (ATCC HB-8065) and human embryonic kidney HEK-293 (ATCC CRL1573) cell lines, respectively. In brief, cells were seeded in 96-well plates at a density of 0.7 × 10^4 and cultured at 37 °C in an atmosphere containing 5% CO2. Next, the compounds were added and investigated in quadruplicate at concentrations ranging from 0.1 to 100 μM for 72 h. The antiproliferative drug DX was used as the reference. The CellTiter 96 AQueous nonradioactive cell proliferation assay (MTS) purchased from Promega (Madison, WI, USA) was used for the determination of cell viability. The absorbance at 492 nm was measured using an EnSpire microplate reader (PerkinElmer, Waltham, MA, USA).

[2] = system: STZ-treated mice; experiment: diabetic STZ-induced peripheral neuropathy, heat hyperalgesia (hot plate test); assay type: in vivo, mouse; details: i.p.
Experimental: Before the in vivo tests, the test compounds were suspended in 1% Tween 80 (Baxter, Poland). The compounds were then administered intraperitoneally. […] The test compounds were administered only once daily on days 1 and 7 of oxaliplatin- or paclitaxel-induced neuropathy. In STZ-treated mice, test compounds were administered 21 days after STZ injection. Control mice used in oxaliplatin and paclitaxel NP models were injected with an appropriate amount of vehicle (0.9% saline). Oxaliplatin was purchased from Activate Scientific GmbH (Germany). Paclitaxel and STZ were purchased from Sigma-Aldrich (Poland).
Doses of both paclitaxel and STZ used for the induction of neuropathy were selected based on our previous research.[66],[67] To induce neuropathy, paclitaxel was used at a dose of 18 mg/kg. It was prepared by dissolving in ethanol (100% (v/v); Polskie Odczynniki Chemiczne, Gliwice, Poland) at 10% of the final desired volume and vortexed for 2 min. […] Blood glucose level was measured 1 day before (referred to as “day 0”) and repeatedly 1, 2, and 3 weeks after STZ injection using a blood glucose monitoring system (Accu-Chek Active, Roche, France). […]
Thermal (heat) nociceptive threshold was assessed in the hot plate test as previously described.[67] […] The time until the animal licked its hind paws or jumped was recorded by means of a stop-watch. […]

## CN(CCC=C1c2ccccc2CCc2ccccc21)C(CO)C(=O)NCc1ccccc1 (stereo not drawn) [Compound 56a, N-Benzyl-2-((3-(10,11-dihydro-5H-dibenzo[a,d][7]annulen-5-ylidene)propyl)(methyl)amino)-3-hydroxypropanamide]
[1]
  viability at 72 h, 25 µM: 100%
[2]
  effect on heat nociceptive threshold, hot plate test: neither 50a nor 56a was effective

## CN(CCON=C(c1ccccc1)c1ccccc1)C(CCN)C(=O)NCc1ccccc1Cl (stereo not drawn) [Compound 50a, 4-Amino-N-[(2-chlorophenyl)methyl]-2-[(2-{[(diphenylmethylidene)amino]oxy}ethyl)(methyl)amino]butanamide]
[2]
  effect on heat nociceptive threshold, hot plate test: neither 50a nor 56a was effective

— publication PMC8397297 (ACS Chemical Neuroscience, 2021)
